The assay has as its target Pantothenate kinase 3 (Homo sapiens, UniProt Q9H999). Put plainly: PANK Activity Assay. The method, then:
All the experiments were repeated twice in duplicate and the data were an average ±data range. […] The experiments mimicking the mixture of ligands present in vivo were performed under different conditions.

Pantothenate kinase 3, sequence (Q9H999 whole entry): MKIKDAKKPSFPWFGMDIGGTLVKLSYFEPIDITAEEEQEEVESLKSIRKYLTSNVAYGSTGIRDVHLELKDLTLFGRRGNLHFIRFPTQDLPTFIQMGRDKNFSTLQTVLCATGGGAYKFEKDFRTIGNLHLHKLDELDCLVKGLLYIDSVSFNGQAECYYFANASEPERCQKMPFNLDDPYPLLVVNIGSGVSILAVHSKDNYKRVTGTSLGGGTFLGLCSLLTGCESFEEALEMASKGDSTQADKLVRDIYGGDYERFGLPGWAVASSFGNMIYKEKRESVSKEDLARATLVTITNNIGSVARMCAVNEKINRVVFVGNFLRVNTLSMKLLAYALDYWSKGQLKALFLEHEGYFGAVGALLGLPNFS

For the compound `O=C(Cc1ccc(C2CC2)c(F)c1)N1CCN(c2nc3ncc(F)cc3o2)CC1` [US12534451, Compound PZ-4351], the IC50 (usually the concentration that gives 50% inhibition) turned out to be 1.23 nM.

(Values after BindingDB's records for patent US12534451 (St. Jude Children''s Research Hospital, Inc., 2026).)
